Experimental data as given in ChEMBL document CHEMBL4417631, “Oral peptide inhibitors of interleukin-23 receptor and their use to treat inflammatory bowel diseases” (2017).

What was measured:
[1] = Half life in simulated intestinal fluid at 20 uM by LC-MS/MS analysis; format: ADME
[2] = target: T1, Interleukin-23 receptor (Homo sapiens, UniProt Q5VWK5); assay: Inhibition of interleukin-23 binding to human interleukin-23 receptor incubated for 2 hrs by competitive binding ELISA
T1 sequence (Q5VWK5 whole entry): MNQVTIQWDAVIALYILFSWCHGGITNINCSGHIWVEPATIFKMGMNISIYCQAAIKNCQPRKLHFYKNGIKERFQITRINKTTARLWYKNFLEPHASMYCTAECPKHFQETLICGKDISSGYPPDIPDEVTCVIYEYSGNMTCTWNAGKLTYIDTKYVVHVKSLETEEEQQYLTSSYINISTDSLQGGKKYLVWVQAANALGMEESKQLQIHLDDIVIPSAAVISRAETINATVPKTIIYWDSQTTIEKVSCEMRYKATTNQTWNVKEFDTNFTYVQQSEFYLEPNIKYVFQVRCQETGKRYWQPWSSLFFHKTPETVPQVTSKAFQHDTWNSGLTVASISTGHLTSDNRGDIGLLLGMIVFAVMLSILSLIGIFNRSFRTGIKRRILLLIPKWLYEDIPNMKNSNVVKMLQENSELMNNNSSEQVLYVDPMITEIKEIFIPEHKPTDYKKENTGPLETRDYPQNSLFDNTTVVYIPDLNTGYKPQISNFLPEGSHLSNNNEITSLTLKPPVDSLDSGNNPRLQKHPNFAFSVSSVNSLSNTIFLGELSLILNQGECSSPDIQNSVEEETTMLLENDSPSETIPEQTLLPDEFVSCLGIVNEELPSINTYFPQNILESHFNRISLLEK

[3] = target: T1, Interleukin-23 receptor; assay: Inhibition of interleukin-23 receptor in human DB cells assessed as reduction in IL-23-stimulated STAT3 phosphorylation incubated for 30 mins by HTRF assay; format: cell-based

| half-life at 20 µM [1] | IC50 [2] | IC50 [3] | SMILES |
| --- | --- | --- | --- |
| 60 to 120 min | 10000 nM |  | CCCCCCCC[C@H](NC(=O)[C@H](Cc1ccc(OC)cc1)NC(=O)[C@@H]1CSCC[C@H](NC(C)=O)C(=O)N[C@@H](CCC(N)=O)C(=O)N[C@@H]([C@@H](C)O)C(=O)N[C@@H](Cc2c[nH]c3ccccc23)C(=O)N[C@@H](CCC(N)=O)C(=O)N1)C(=O)N[C@@](C)(CCCCN)C(=O)N[C@@H](CCCCNC(C)=O)C(=O)N[C@@H](CC(N)=O)C(=O)NCC(N)=O |
| > 360 min | > 1000 nM |  | CC(=O)NCCCC[C@H](NC(=O)[C@](C)(CCCCN)NC(=O)[C@H](Cc1ccc2ccccc2c1)NC(=O)[C@H](Cc1c(C)cc(O)cc1C)NC(=O)[C@@H]1CSCC[C@H](NC(C)=O)C(=O)N[C@@H](CCC(N)=O)C(=O)N[C@@H]([C@@H](C)O)C(=O)N[C@@H](Cc2c[nH]c3ccccc23)C(=O)N[C@@H](CCC(N)=O)C(=O)N1)C(=O)N[C@@H](CC(N)=O)C(=O)NCC(N)=O |
| > 360 min | 100 to 1000 nM |  | COc1ccc(C[C@H](NC(=O)[C@@H]2CSCC[C@H](NC(C)=O)C(=O)N[C@@H](CCC(N)=O)C(=O)N[C@@H]([C@@H](C)O)C(=O)N[C@@H](Cc3c[nH]c4ccccc34)C(=O)N[C@@H](CCC(N)=O)C(=O)N2)C(=O)N[C@@H](Cc2ccc3ccccc3c2)C(=O)N[C@@H](CCCN)C(=O)N[C@@H](CCCCNC(C)=O)C(=O)N[C@@H](CC(N)=O)C(=O)NCC(N)=O)cc1 |
| > 360 min | 100 to 1000 nM |  | CC(=O)NCCCC[C@H](NC(=O)[C@](C)(CCCCN)NC(=O)[C@H](Cc1ccc2ccccc2c1)NC(=O)[C@H](Cc1ccc(Oc2ccccc2)cc1)NC(=O)[C@@H]1CSCC[C@H](NC(C)=O)C(=O)N[C@@H](CCC(N)=O)C(=O)N[C@@H]([C@@H](C)O)C(=O)N[C@@H](Cc2c[nH]c3ccccc23)C(=O)N[C@@H](CCC(N)=O)C(=O)N1)C(=O)N[C@@H](CC(N)=O)C(=O)NCC(N)=O |
| < 60 min | 10000 nM |  | CCCCCCCC[C@H](NC(=O)[C@@H]1CSCC[C@H](NC(C)=O)C(=O)N[C@@H](CCC(N)=O)C(=O)N[C@@H]([C@@H](C)O)C(=O)N[C@@H](Cc2c[nH]c3ccccc23)C(=O)N[C@@H](CCC(N)=O)C(=O)N1)C(=O)N[C@@H](Cc1ccc2ccccc2c1)C(=O)N[C@@](C)(CCCCN)C(=O)N[C@@H](CCCCNC(C)=O)C(=O)N[C@@H](CC(N)=O)C(=O)NCC(N)=O |
| < 60 min | 25 to 100 nM |  | CC(=O)NC[C@H](NC(=O)[C@H](CCCN)NC(=O)[C@H](Cc1ccc2ccccc2c1)NC(=O)[C@H](Cc1ccc(OCCN)cc1)NC(=O)[C@@H]1CSCC[C@H](NC(C)=O)C(=O)N[C@@H](CCC(N)=O)C(=O)N[C@@H]([C@@H](C)O)C(=O)N[C@@H](Cc2c[nH]c3ccccc23)C(=O)N[C@@H](CCC(N)=O)C(=O)N1)C(=O)N[C@@H](CC(N)=O)C(=O)NCC(N)=O |
|  | 100 to 1000 nM | 25 to 100 nM | COc1ccc(C[C@H](NC(=O)[C@@H](NC(=O)[C@H](CCC(N)=O)NC(=O)[C@H](Cc2c[nH]c3ccccc23)NC(=O)[C@@H](NC(=O)[C@H](CCC(N)=O)NC(=O)[C@@H](NC(C)=O)C(C)(C)S)[C@@H](C)O)C(C)(C)S)C(=O)N[C@@H](Cc2ccc3ccccc3c2)C(=O)N[C@@](C)(CCCN)C(=O)N[C@@H](CCCCNC(C)=O)C(=O)N[C@@H](CC(N)=O)C(=O)NCC(N)=O)cc1 |
|  | 100 to 1000 nM | 100 to 1000 nM | CC(=O)N[C@@H](CS)C(=O)N[C@H](C(=O)N[C@@H](CC(=O)O)C(=O)N[C@@H](Cc1c[nH]c2ccccc12)C(=O)N[C@@H](CCCCN)C(=O)N[C@@H](CS)C(=O)N[C@@H](Cc1ccc(O)cc1)C(=O)N[C@@H](Cc1c[nH]c2ccccc12)C(=O)N[C@@H](Cc1cnc[nH]1)C(=O)N[C@H](C(=O)N[C@@H](Cc1ccccc1)C(=O)NCC(N)=O)[C@@H](C)O)[C@@H](C)O |
|  | 100 to 1000 nM | 100 to 1000 nM | CC(=O)N[C@@H](CS)C(=O)N[C@@H](C)C(=O)N[C@@H](CC(=O)O)C(=O)N[C@@H](Cc1c[nH]c2ccccc12)C(=O)N[C@H](C(=O)N[C@@H](CS)C(=O)N[C@@H](Cc1ccc(O)cc1)C(=O)N[C@@H](Cc1c[nH]c2ccccc12)C(=O)N[C@@H](Cc1cnc[nH]1)C(=O)N[C@H](C(=O)N[C@@H](Cc1ccccc1)C(=O)NCC(=O)N[C@H](CCCCN)C(=O)O)[C@@H](C)O)C(C)C |
